# Data: patent publication US20070135403A1, “Substituted 2,5-diaminomethyl-1H-pyrrole compounds” (Gruenenthal GmbH, priority 2004, published 2007)
# Counter-ions that a name gives are not always drawn.
# Columns and labels:
# [1] = target: T1, 5-HT transporter (5-HT uptake) (Rattus norvegicus, UniProt P31652); assay: 5-HT uptake inhibition in rat brain synaptosomes (medulla and pons); type: biochemical; conditions: % inhibition
# T1 construct: from tissue; host or cells: rat brain synaptosomes (P2 fraction) from medulla and pons
# T1 sequence (P31652 whole entry): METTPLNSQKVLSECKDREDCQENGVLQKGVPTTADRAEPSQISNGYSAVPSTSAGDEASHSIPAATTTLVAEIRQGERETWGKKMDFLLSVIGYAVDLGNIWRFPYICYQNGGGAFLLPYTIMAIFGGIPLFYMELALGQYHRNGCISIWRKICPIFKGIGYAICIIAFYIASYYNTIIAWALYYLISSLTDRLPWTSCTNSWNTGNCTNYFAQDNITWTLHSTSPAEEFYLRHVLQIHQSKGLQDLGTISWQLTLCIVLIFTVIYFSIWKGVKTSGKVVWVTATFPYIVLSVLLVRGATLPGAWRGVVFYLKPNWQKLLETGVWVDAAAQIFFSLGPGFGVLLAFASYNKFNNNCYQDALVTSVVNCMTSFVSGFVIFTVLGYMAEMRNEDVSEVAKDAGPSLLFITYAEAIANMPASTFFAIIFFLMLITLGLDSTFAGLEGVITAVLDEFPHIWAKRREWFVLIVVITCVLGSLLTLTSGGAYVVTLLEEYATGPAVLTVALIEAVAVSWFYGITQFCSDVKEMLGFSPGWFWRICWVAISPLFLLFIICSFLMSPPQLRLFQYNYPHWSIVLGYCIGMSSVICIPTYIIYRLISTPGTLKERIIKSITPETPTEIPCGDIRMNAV
# From the text: (§1) b) Method For Determining Noradrenalin and 5-HT Uptake Inhibition
# (§2) Synaptosomes from rat brain regions are freshly isolated for in vitro studies, as described in the publication “The isolation of nerve endings from brain” by E. G. Gray and V. P. Whittaker, J. Anatomy 96, pages 79-88, 1962. The corresponding literature description is hereby introduced as a reference and is deemed to be part of the disclosure.
# (§3) The tissue (hypothalamus for the determination of noradrenalin uptake inhibition and medulla and pons for the determination of 5-HT uptake inhibition) is homogenised in ice-cooled 0.32 M sucrose (100 mg of tissue/1 ml) in a glass homogeniser with Teflon pestle using five complete up and down strokes at 840 revolutions/minute.
# (§4) The homogenate is centrifuged at 4° C. for 10 minutes at 1000 g. After subsequent centrifugation at 17000 g for 55 minutes, the synaptosomes (P2 fraction) are obtained, which are resuspended in 0.32 M glucose (0.5 ml/100 mg of original weight).
# (§5) The particular uptake is measured in a 96-well microtitre plate. The volume is 250 μl and the incubation proceeds at room temperature (approx. 20-25° C.) under an O2 atmosphere.
# (§6) The incubation time is 7.5 minutes for [^3H]—NA and 5 minutes for [^3H]-5-HT. The 96 samples are then filtered through a Unifilter GF/B® microtitre plate (Packard) and washed with […] of incubated buffer using a “Brabdel MPXRI-96T Cell-Harvester”. The Unifilter GF/B plate is dried for 1 hour at 55° C. The plate is then sealed with a Back seal® (Packard) and 35 μl of scintillation fluid are added per well (Ultima Gold®, Packard). After sealing with a top seal® (Packard) and establishing an equilibrium (around 5 hours), radioactivity is determined in a “Trilux 1450 Microbeta” (Wallac).
# (§7) The quantity of protein used in the above determination corresponds to the values known from the literature, as for example described in “Protein measurement with the folin phenol reagent”, Lowry et al., J. Biol. Chem., 193, 265-275, 1951. A detailed description of the method may additionally be found in the literature, for example in M.Ch. Frink, H.-H. Hennies, W. Engelberger, M. Haurand and B. Wilffert (1996) Arzneim.-Forsch./Drug Res. 46 (III), 11, 1029-1036. The disclosures of these two articles are hereby incorporated by reference.
# (§8) The following characteristics were determined for the NA or 5-HT transporter: • NA uptake: Km=0.32±0.11 μM • 5HT uptake: Km=0.084±0.011 μM
# [2] = target: T2, NA transporter (NA uptake) (Rattus norvegicus, UniProt Q63380); assay: Noradrenalin (NA) uptake inhibition in rat brain synaptosomes (hypothalamus); type: biochemical; conditions: 10 μM inhibition
# T2 construct: from tissue; host or cells: rat brain synaptosomes (P2 fraction) from hypothalamus
# T2 sequence (Q63380 1-617): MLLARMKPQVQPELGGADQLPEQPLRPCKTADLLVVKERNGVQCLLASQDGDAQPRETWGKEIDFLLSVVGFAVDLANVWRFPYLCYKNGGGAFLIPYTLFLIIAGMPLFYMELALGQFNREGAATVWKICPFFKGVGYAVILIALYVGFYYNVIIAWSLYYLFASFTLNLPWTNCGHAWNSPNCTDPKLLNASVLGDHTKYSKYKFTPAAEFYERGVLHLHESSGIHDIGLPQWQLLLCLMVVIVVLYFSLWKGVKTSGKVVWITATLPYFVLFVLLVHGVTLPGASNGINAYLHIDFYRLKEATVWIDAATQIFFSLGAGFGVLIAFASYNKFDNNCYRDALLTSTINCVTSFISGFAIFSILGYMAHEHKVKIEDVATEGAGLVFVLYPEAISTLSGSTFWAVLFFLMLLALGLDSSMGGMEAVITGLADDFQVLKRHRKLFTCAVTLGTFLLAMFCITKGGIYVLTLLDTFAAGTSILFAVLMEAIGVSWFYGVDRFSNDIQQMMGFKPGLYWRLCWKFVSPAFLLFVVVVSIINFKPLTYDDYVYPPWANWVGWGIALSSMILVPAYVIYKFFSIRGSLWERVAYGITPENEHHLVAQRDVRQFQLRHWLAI
# From the text: as §1, §2, §3, §4, §5, §6, §7, §8
Molecule,5HT uptake inhibition ([1]; 10 μM) [%],NA uptake inhibition [2],inhibition at 10 µM [1] [%],inhibition at 10 µM [2] [%]
4-[1-Methyl-5-(4-phenyl-piperidin-1-ylmethyl)-1H-pyrrol-2-ylmethyl]-morpholine [Example 3],59,71,–,–
"CCN(CC)Cc1ccc(CN2CCCCC2)n1C [Example 1, Diethyl-(1-methyl-5-piperidin-1-ylmethyl-1H-pyrrol-2-ylmethyl)-amine dihydrochloride]",–,–,34,–
"CC1CCN(Cc2ccc(CN3CCCCC3)n2C)CC1 [Example 2, 1-(1-Methyl-5-piperidin-1-ylmethyl-1H-pyrrol-2-ylmethyl)-4-methylpiperidine]",–,–,72,–
"Cn1c(CN2CCCCC2)ccc1CN1CCN(c2ccccc2)CC1 [Example 4, 1-(1-Methyl-5-piperidin-1-ylmethyl-1H-pyrrol-2-ylmethyl)-4-phenyl-piperazine]",–,–,48,77
"Cn1c(CN2CCCCCC2)ccc1CN1CCC(Cc2ccccc2)CC1 [Example 5, 1-[5-(4-Benzyl-piperidin-1-ylmethyl)-1-methyl-1H-pyrrol-2-ylmethyl]-azepane]",–,–,64,100
"CN(Cc1ccccc1)Cc1ccc(CN2CCC(Cc3ccccc3)CC2)n1C [Example 6, Benzyl-[5-(4-benzyl-piperidin-1-ylmethyl)-1-methyl-1H-pyrrol-2-ylmethyl]-methyl-amine]",–,–,61,100
"Cn1c(CN2CCOCC2)ccc1CN1CCC(Cc2ccccc2)CC1 [Example 7, 4-[5-(4-Benzyl-piperidin-1-ylmethyl)-1-methyl-1H-pyrrol-2-ylmethyl]-morpholine]",–,–,55,100
"CN(Cc1ccccc1)Cc1ccc(CN2CCCCCC2)n1C [Example 8, (5-Azepan-1-ylmethyl-1-methyl-1H-pyrrol-2-ylmethyl)-benzyl-methyl-amine]",–,–,–,62
"CC1CCCCN1Cc1ccc(CN(C)Cc2ccccc2)n1C (stereo not drawn) [Example 9, Benzyl-methyl-[1-methyl-5-(2-methyl-piperidin-1-ylmethyl)-1H-pyrrol-2-ylmethyl]-amine]",–,–,–,57
Benzyl-methyl-[1-methyl-5-(4-phenyl-piperidin-1-ylmethyl)-1H-pyrrol-2-ylmethyl]-amine [Example 10],–,53,–,–
